In ChEMBL document CHEMBL3856241, “Discovery of novel 5-hydroxy-4-pyridone-3-carboxy acids as potent inhibitors of influenza Cap-dependent endonuclease” (Bioorg Med Chem Lett, 2016):

Tests used:
[1] = Inhibition of Influenza A virus A/WSN/33(H1N1) cap-dependent endonuclease using 3'-BHQ2 labeled 30-mer RNA as substrate after 60 mins by fluorescence assay; set-up: species or system Influenza A virus (A/WSN/1933(H1N1))
[2] = Antiviral activity against Influenza A virus A/WSN/33(H1N1) infected in MDCK cells assessed as inhibition of virus-induced cytopathic effect after 3 days by WST-8 assay; type: functional, cell-based, Influenza A virus (A/WSN/1933(H1N1)); conditions: 72 h

Compound	IC50 [1]	EC50 [2]
Cn1cc(C2(Cn3cc(O)c(=O)c(C(=O)O)c3)CCCC2)c2ccccc21	16.1 nM	–
O=C(O)c1cn(CCc2ccc(O)cc2)cc(O)c1=O	2490 nM	–
O=C(O)c1cn(CCc2ccccc2)cc(O)c1=O	714 nM	–
O=C(O)c1cn(CC2(c3ccccc3Cl)CCCC2)cc(O)c1=O	36.1 nM	–
O=c1ccn(Cc2ccc(F)cc2)cc1O	> 500000 nM	–
O=C(O)c1cn(CC2(c3ccc4c(c3)OCO4)CCCC2)cc(O)c1=O	16.3 nM	–
O=C(O)c1cn(CCc2ccccc2Cl)cc(O)c1=O	242 nM	–
O=C(O)c1cn(Cc2ccccc2)cc(O)c1=O	2100 nM	–
O=C(O)c1cn(Cc2ccc(F)cc2)cc(O)c1=O	3230 nM	–
O=C(O)c1cn(CCCc2ccccc2)cc(O)c1=O	1420 nM	–
O=C(O)c1cn(CCc2cccc(Cl)c2)cc(O)c1=O	430 nM	–
O=C(O)c1cn(CC2(c3ccccc3)CCCC2)cc(O)c1=O	60.7 nM	–
O=C(O)c1cn(CC2(c3ccccc3)CCC2)cc(O)c1=O	105 nM	–
O=C(O)c1cn(Cc2ccc(F)cc2)ccc1=O	> 500000 nM	–
O=C(O)c1cn(CC2(c3ccc4cccnc4c3)CCCC2)cc(O)c1=O	16.4 nM	–
O=C(O)c1cn(CC2(n3ccc4cccnc43)CCCC2)cc(O)c1=O	5.12 nM	201 nM
O=C(O)c1cn(CCc2ccc(Cl)cc2)cc(O)c1=O	824 nM	–
O=C(O)c1cn(CCc2ccc(-c3ccc(F)cc3)cc2)cc(O)c1=O	3730 nM	–
O=C(O)c1cn(-c2ccc(F)cc2)cc(O)c1=O	6510 nM	–
O=C(O)c1cn(CC2(c3ccccc3)CC2)cc(O)c1=O	402 nM	–
O=C(O)c1cn(CC2(c3cccc(Cl)c3)CCCC2)cc(O)c1=O	9.2 nM	–
O=C(O)c1cn(CCCCc2ccccc2)cc(O)c1=O	2810 nM	–
O=C(O)c1cn(CC2(c3ccc(Cl)cc3)CCCC2)cc(O)c1=O	15.6 nM	–
O=C(O)c1cn(CC2(c3ccccc3)CCCCC2)cc(O)c1=O	61.8 nM	–
O=C(O)c1cn(CC2(c3ccnc(-n4cccn4)c3)CCCC2)cc(O)c1=O	17.9 nM	–
Cn1cc(C2(Cn3cc(O)c(=O)c(C(=O)O)c3)CCCC2)c2ncccc21	46.3 nM	–
O=C(O)c1cn(CC2(c3ccc4ccccc4c3)CCCC2)cc(O)c1=O	28.4 nM	–
O=C(O)c1cn(CC2(c3cccc(Oc4ccccc4)c3)CCCC2)cc(O)c1=O	43 nM	–
